From US20070254882A1, “Sulfamide Derivatives and Pharmaceutical Composition for Upregulation of Lipid Metabolism Comprising Same” (CRYSTAL GENOMICS, INC., priority 2004, published 2007) come the findings set out here.

The subject of test [1] is ob/ob mice. The experiment in a line: Oral glucose tolerance test (OGTT) in ob/ob mice. In kind it is in vivo. Conditions: for total changes in the glucose concentration represented by AUC compared to the control group / glucose concentration at 30 and 60 min after the glucose administration compared to the control group: 2 g/kg glucose; for total changes in the glucose concentration represented by AUC compared to the control group: 0-120 min, P<0.05, P<0.005 and P<0.01, FIG. 3b; for glucose concentration at 30 and 60 min after the glucose administration compared to the control group: P<0.01, P<0.05, FIG. 3a; for glucose concentration during the fast compared to the control group: ob/ob mice, 28 days, fasted 16 hours, P<0.05, FIG. 3c. How it is done: (§1) In order to evaluate the anti-obesity activity of the inventive compound, B6.V-Lepob/J mice (laboratory animal team of Korea Research Institute of Chemical Technology) were used for tests and lean mice as a control. Ob/ob mice are model animals for insulin-independent diabetes, suitable for studying the effect of an anti-obesity drug.
(§2) 42 mice weighing 38.6±1.4 g were selected randomly from a pool of ob/ob mice (7-9 weeks old), and divided into groups of 7 mice each. The test was carried out at a constant temperature (24±0.5° C.) and humidity (55±5%) using ventilation system (10-12 times/hour), under a specific pathogen free (SPF) condition created in an automatic on-off cycle of 12 hours.
(§3) The groups were divided to a control group treated only with an excipient, a positive control group treated with fenofibrate, and test groups treated with each of the compounds of Examples 5, 62 and 65, at dosage 100 mg/10 ml/kg body weight. Each of the test and control compounds was diluted with 0.5% CMC to a concentration to match the above dosage, and administered orally using a syringe into the stomach twice a day (9:00 and 18:00) for a period of 4 weeks, and the following characteristics were measured.
4) Oral Glucose Tolerance Test (OGTT)
28 days after the administration, each of the experimental mice was fasted for 16 hours, 2 g/kg of glucose was administered thereto, a blood sample was collected from the ocular venous plexus thereof at 0, 15, 30, 60 and 120 min from the administration, and the glucose concentration and AUC (area under the curve, Skrumsager et al., J Clin Pharmacol. 43, 1244-1256, 2003) were determined.

Test [2] has as its system ob/ob mice. Put plainly: Anti-obesity test: lipid metabolism-related materials and glucose in blood of ob/ob mice. The settings on record: 28 days; for GLU (glucose) / HDL (HDL-cholesterol) / LDL (LDL-cholesterol) / NEFA (free fatty acid) / TG (triglyceride): 100 mg/kg oral twice a day, fasted 16 hours, plasma. The test is classed as in vivo. The procedure: as §1, §2, §3
3) Measurement of Lipid Metabolism-Related Materials and Insulin Concentration in Blood
28 days after the administration, experimental mice were fasted for 16 hours, and the concentrations of lipid metabolism-related materials such as triglyceride, free fatty acid and cholesterol, and insulin in blood were measured. Specifically, a blood sample was collected from the ocular venous plexus of each mouse and centrifuged to separate plasma. The glucose (GLU), HDL-cholesterol (HDL), LDL-cholesterol (LDL), triglyceride (TG) and free fatty acid (NEFA) levels were measured by enzymatic assay using 2 kinds of Selectra (Vital Lab), an automatic biochemical analyzer, and the insulin concentration was measured by ELISA using an insulin detection kit (Shibayagi).

The target in a further test is T1, human PPAR α (Homo sapiens, UniProt Q07869).
T1 construct: expressed in transfected cells; host or cells: HepG2 (ATCC HB-8065) or 293T cells (ATCC CRL-1573)
T1 sequence (Q07869 239-466 limits assumed): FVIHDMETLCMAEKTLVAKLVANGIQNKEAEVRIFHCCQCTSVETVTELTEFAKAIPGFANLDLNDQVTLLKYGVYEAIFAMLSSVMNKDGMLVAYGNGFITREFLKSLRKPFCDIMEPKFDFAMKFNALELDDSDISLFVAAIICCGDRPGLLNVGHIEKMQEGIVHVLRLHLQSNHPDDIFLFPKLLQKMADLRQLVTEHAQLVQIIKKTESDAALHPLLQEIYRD
The experiment in a line: Exogeneous PPAR α agonist assay (GAL4 DNA binding domain/PPAR α ligand binding domain, luciferase) in 293T cells. In kind it is cell-based. On the set-up: scale not given here. Conditions: 25 μM compound, 48 hours, luciferase activity increase relative to the control. In outline: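 HepG2 or 293T cells (2×10^4/well) lipofectamine-transfected 3 hours with PPAR α, UAS firefly-luciferase and Renilla-luciferase constructs. Compounds then added at 25 μM final and incubated 48 hours at 37° C. PPAR α activation measured as dual firefly/Renilla luciferase luminescence.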

The test system of test [3] is ob/ob mice. Put plainly: Anti-obesity test: feed intake in ob/ob mice. The test is classed as in vivo. The settings on record: 100 mg/kg oral twice a day, first week of the test, P<0.005, FIG. 1a. How it is done: as §1, §2, §3
1) General Symptoms and Observation of Dead Animal
The conditions, behavioral changes, addictive symptoms and the death rate were observed constantly during the test period.

Test [4] has as its system ob/ob mice. Put plainly: Anti-obesity test: dissection, fat weights in ob/ob mice. In kind it is in vivo. The settings on record: ob/ob mice after completing all tests; for adiposity index (fat weight/(body weight—fat weight)): FIG. 4b; for total fat weight: P<0.01, P<0.005, FIG. 4a. The procedure: as §1, §2, §3
After completing all tests, each of the mice in test treated with the compounds of Examples 5 and 62 and the positive control group treated with fenofibrate was sacrificed, the whole blood, liver, muscle and white adipose tissue thereof were extracted. White adipose tissued was divided into visceral fat and subcutaneous fat, and the amounts of the total fats and liver tissue were weighed separately.

The subject of test [5] is ob/ob mice. Put plainly: Anti-obesity test: body weight measurement in ob/ob mice. The test is classed as in vivo. Conditions: 100 mg/kg oral twice a day. How it is done:
as §1, §2, §3
2) Body Weight Measurement
The average body weight of each group was measured every 3 days after the administration, and the changes in the average body weight and body weight gain (measured body weight—initial body weight) were analyzed.

As to `Cc1oc(-c2ccc(C(F)(F)F)cc2)nc1CCOc1cccc(CN(CC(=O)O)S(=O)(=O)N(C)C)c1` [Example 65, [N—(N,N-dimethylamino)sulfonyl-N-[3-[2-[2-(4-trifluoromethylphenyl)-5-methyloxazol-4-yl]ethoxy]benzyl]amino]acetic acid], in the test with ob/ob mice [1], the “total changes in the glucose concentration represented by AUC compared to the control group” value (“total changes” below) was “much lower”; the “glucose concentration at 30 and 60 min after the glucose administration compared to the control group” value is reported as “significantly low”; the “glucose concentration during the fast compared to the control group” value is reported as “significantly low”. For the same compound, in the test with ob/ob mice [2], the “GLU (glucose)” value was 158.8 ± 44.0 mg/dL, the “HDL (HDL-cholesterol)” value was 321.4 ± 31.8 mg/dL, the “LDL (LDL-cholesterol)” value is 33.0 ± 9.3 mg/dL and the “NEFA (free fatty acid)” value is 1,006 ± 203 UEq/l. Moreover, in the test with ob/ob mice [2], the “TG (triglyceride)” value stood at 45.9 ± 4.7 mg/dL, the “GLU concentration compared to the control or positive control group” value is listed as “much lower” and the “HDL concentration” value is reported as “high”. Moreover, the “Activity at 25 μM Step 1 293T cell” value at human PPAR α came out at 1. Further, the “daily feed intake compared to the control group” value with ob/ob mice [3] was “significantly reduced”.
Turning to `Cc1ccc(-c2nc(CCOc3cccc(CN(CC(=O)O)S(=O)(=O)N(C)C)c3)c(C)o2)cc1` [Example 62, [N—(N,N-dimethylamino)sulfonyl-N-[3-[2-[2-(4-methylphenyl)-5-methyloxazol-4-yl]ethoxy]benzyl]amino]acetic acid], in the test with ob/ob mice [1], the “total changes” value is “much lower”; the “glucose concentration at 30 and 60 min after the glucose administration compared to the control group” value is reported as “significantly low”; the “glucose concentration during the fast compared to the control group” value is “significantly low”. In the test with ob/ob mice [4], the “weight of subcutaneous fat” value is on record as “reduced”, the “weight of visceral fat” value is “reduced”, the “adiposity index (fat weight/(body weight—fat weight))” value is “reduced” and the total fat weight result is recorded as “low”. For the same compound, in the test on ob/ob mice [2], the “GLU (glucose)” value was 190.4 ± 77.6 mg/dL, the “HDL (HDL-cholesterol)” value was found to be 381.8 ± 40.1 mg/dL, the “LDL (LDL-cholesterol)” value came to 37.8 ± 5.2 mg/dL and the “NEFA (free fatty acid)” value was found to be 976 ± 238 UEq/l. Also, in the test with ob/ob mice [2], the “TG (triglyceride)” value amounted to 37.9 ± 6.6 mg/dL, the “GLU concentration compared to the control or positive control group” value was “much lower” and the “HDL concentration” value was “high”. The “triglyceride concentration compared to a control” value in the test with ob/ob mice [2] (P<0.05) is recorded as “significantly lower”. Moreover, the “Activity at 25 μM Step 1 293T cell” value on human PPAR α is reported as 2. Besides, the “daily feed intake compared to the control group” value in the test with ob/ob mice [3] is listed as “significantly reduced”. The “body weight effect compared to the positive control group treated with fenofibrate” value with ob/ob mice [5] is listed as “improved effect”. In the test on ob/ob mice [5] (at day 7 from the administration, P<0.01), the “change in the body weight gain compared to the control group” value is “evidently lower”. Further, the “change in the average body weight compared to the control group” value with ob/ob mice [5] (at day 10 from the administration, P<0.01, P<0.005) is “markedly reduced”.
Regarding `Cc1oc(-c2ccc(C(F)(F)F)cc2)nc1COc1cccc(CN(CC(=O)O)S(=O)(=O)N(C)C)c1` [Example 5, [N—(N,N-dimethylamino)sulfonyl-N-[3-[[2-(4-trifluoromethylphenyl)-5-methyloxazol-4-yl]methoxy]benzyl]amino]acetic acid], in the test on ob/ob mice [1], the “total changes” value is on record as “much lower” and the “glucose concentration during the fast compared to the control group” value is “significantly low”. For the same compound, in the test with ob/ob mice [4], the “weight of subcutaneous fat” value is listed as “reduced”, the “weight of visceral fat” value is reported as “reduced”, the “adiposity index (fat weight/(body weight—fat weight))” value is listed as “reduced” and the total fat weight entry was “low”. Further, in the test with ob/ob mice [2], the “GLU (glucose)” value is 218.1 ± 125.5 mg/dL, the “HDL (HDL-cholesterol)” value amounted to 292.1 ± 24.7 mg/dL, the “LDL (LDL-cholesterol)” value amounted to 24.3 ± 4.3 mg/dL and the “NEFA (free fatty acid)” value came out at 880 ± 273 UEq/l. Also, in the test with ob/ob mice [2], the “TG (triglyceride)” value was 47.3 ± 12.4 mg/dL and the “GLU concentration compared to the control or positive control group” value is recorded as “much lower”. In addition, the “LDL concentration” value with ob/ob mice [2] (P<0.05) is “low”. On human PPAR α, the “Activity at 25 μM Step 1 293T cell” value amounted to 2. In the test with ob/ob mice [3], the “daily feed intake compared to the control group” value is “significantly reduced”.
